Some test systems named below: ACHN; CCRF-CEM; COLO 205; DU-145; EKVX; HCT-116; HCT-15; HOP-92; HT-29; K562; MDA-N; NCI-H226; NCI-H460; OVCAR-4; RXF 393; SF-268; SK-MEL-2; SR; UACC-257; UO-31.
Assay in all cases: inhibition of tumour cell growth, NCI panel, 48 h

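Cells were grown in 96-well plates and exposed to each compound for 48 hours at five concentrations; endpoints were interpolated linearly between bracketing concentrations, or set to the highest concentration if not reached. GI50 is the concentration that inhibits growth by half.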 Calls of active or inactive are those of the source. Rule as the data show it: active = GI50 up to about 1.1 µM and inactive = higher. Where only a bound is given, the exact number is not on record here.

In the case of `Nc1nc(SCc2ccccc2Cl)cc(C(=O)O)n1`, the GI50 in the experiment on ACHN was 91.4 µM (inactive); in the experiment on CCRF-CEM, 32.2 µM (inactive); with COLO 205, 39.4 µM (inactive); in the experiment on DU-145 it was > 100 µM (inactive); with EKVX, 54.1 µM (inactive); in the experiment with HCT-116, 54.5 µM (inactive). The GI50 in the experiment on HCT-15 was 41.9 µM; with HOP-92 it was 46.2 µM (inactive); with HT-29 it was > 100 µM (inactive); in the experiment on K562, 46.5 µM (inactive); with MDA-N it was 96.4 µM (inactive); in the experiment with NCI-H226 it was 49.1 µM (inactive). In addition, the GI50 in the experiment on NCI-H460 was 41.5 µM (inactive); in the experiment with OVCAR-4, 60 µM (inactive); in the experiment on RXF 393, > 100 µM (inactive); in the experiment on SF-268, 52.7 µM (inactive); in the experiment on SK-MEL-2 it was 58.9 µM (inactive); in the experiment with SR, 39 µM (inactive). Also, the GI50 in the experiment on UACC-257 is > 100 µM (inactive); with UO-31, 67 µM (inactive).

Consider `COc1cc2c(cc1OCCN1C(=O)c3cccc4cccc(c34)C1=O)N=C[C@@H]1CCCN1C2=O`, for which the GI50 was 8.07 µM (inactive) in the experiment on ACHN; 0.236 µM (active) in the experiment on CCRF-CEM; 8.32 µM (inactive) in the experiment with COLO 205; 8.89 µM (inactive) in the experiment on DU-145; 9.68 µM (inactive) with EKVX; 7.66 µM (inactive) with HCT-116. Moreover, the GI50 with HCT-15 is 9.31 µM; in the experiment with HOP-92, 7.76 µM (inactive); in the experiment on HT-29, 9.46 µM (inactive); in the experiment on K562 it was 1.15 µM (inactive); in the experiment with MDA-N, 8.02 µM (inactive); in the experiment on NCI-H226, 7.26 µM (inactive). Also, the GI50 with NCI-H460 was 5.89 µM (inactive); in the experiment on OVCAR-4, 16 µM (inactive); in the experiment with RXF 393, 7.8 µM (inactive); in the experiment with SF-268, 7.74 µM (inactive); with SK-MEL-2, 7.29 µM (inactive); with SR, > 100 µM (inactive). The GI50 with UACC-257 was 9.44 µM (inactive); in the experiment on UO-31, 8.87 µM (inactive).

As for `CC1CC[C@@]2(OC1)O[C@H]1C[C@H]3[C@@H]4CC[C@H]5C[C@@H](OC6OC(CO)C(OC7OC(CO)C(OC8OC(CO)C(O)C(OC9OC(C)C(OC%10OC(C)C(O)C(O)C%10O)C(O)C9O)C8OC8OCC(O)C(O)C8O)C(O)C7O)C(O)C6O)CC[C@]5(C)[C@H]4CC(=O)[C@]3(C)[C@H]1[C@@H]2C` (stereo not given in full), the GI50 is 17.2 µM (inactive) in the experiment with ACHN; 12.2 µM (inactive) in the experiment with CCRF-CEM; 16.5 µM (inactive) with COLO 205; 19.9 µM (inactive) in the experiment with DU-145; 22.1 µM (inactive) in the experiment with EKVX; 23.4 µM (inactive) in the experiment with HCT-116. Further, the GI50 in the experiment with HCT-15 was 19.1 µM; in the experiment on HOP-92 it was 19 µM (inactive); in the experiment on HT-29, 36 µM (inactive); in the experiment on K562 it was 16.7 µM (inactive); with MDA-N, 20 µM (inactive); with NCI-H226 it was 18.8 µM (inactive). Also, the GI50 in the experiment on NCI-H460 was 17.8 µM (inactive); with OVCAR-4, 16.1 µM (inactive); with RXF 393, 16.9 µM (inactive); in the experiment with SF-268, 25.6 µM (inactive); in the experiment with SK-MEL-2 it was 16.1 µM (inactive); in the experiment with SR it was 14.6 µM (inactive). For the same compound, the GI50 was 18.2 µM (inactive) in the experiment with UACC-257 and 19.2 µM (inactive) with UO-31.

`COc1ccc(C(c2c[nH]c3ccc(Br)cc23)c2c[nH]c3ccc(Br)cc23)cc1`: the GI50 in the experiment with ACHN is 0.24 µM (active); in the experiment on CCRF-CEM it was 0.138 µM (active); with COLO 205, 0.17 µM (active); with DU-145, 0.364 µM (active); in the experiment with EKVX it was 0.38 µM (active); with HCT-116, 0.149 µM (active). In addition, the GI50 in the experiment on HCT-15 is 0.214 µM; with HOP-92, 0.213 µM (active); in the experiment on HT-29, 0.294 µM (active); with K562 it was 0.167 µM (active); in the experiment with MDA-N it was 0.208 µM (active); in the experiment on NCI-H226, 0.938 µM (active). In addition, the GI50 with NCI-H460 is 0.228 µM (active); with OVCAR-4 it was 0.267 µM (active); with RXF 393 it was 0.278 µM (active); in the experiment with SF-268, 0.33 µM (active); with SK-MEL-2, 0.366 µM (active); with SR, 0.151 µM (active). Further, the GI50 in the experiment with UACC-257 is 0.29 µM (active); in the experiment with UO-31, 0.394 µM (active).

Consider `COc1ccc(Oc2nc3cc(C(F)(F)F)ccc3nc2C(C)C)cc1`, for which the GI50 was 26.2 µM (inactive) in the experiment on ACHN; 39.6 µM (inactive) in the experiment with CCRF-CEM; 16 µM (inactive) with COLO 205; 27.2 µM (inactive) in the experiment on DU-145; 19.2 µM (inactive) with EKVX; 31 µM (inactive) with HCT-116. The GI50 was 23.8 µM in the experiment on HCT-15; 17.2 µM (inactive) in the experiment on HOP-92; 19 µM (inactive) with HT-29; 24.6 µM (inactive) in the experiment with K562; 35.4 µM (inactive) in the experiment with MDA-N; 21 µM (inactive) in the experiment with NCI-H226. Besides, the GI50 in the experiment with NCI-H460 was 23.2 µM (inactive); with OVCAR-4, 34.7 µM (inactive); in the experiment on RXF 393, 15.8 µM (inactive); with SF-268, 32.7 µM (inactive); in the experiment on SK-MEL-2, 18.5 µM (inactive); with SR, 16.7 µM (inactive). Moreover, the values for the GI50 with UACC-257 and in the experiment on UO-31 were 26.1 µM (inactive) and 32.6 µM (inactive), respectively.

Take `CCOC(=O)/C(C#N)=C/N(CC)/N=C/c1ccccc1`: the GI50 in the experiment with ACHN, with CCRF-CEM, in the experiment with COLO 205, with DU-145, in the experiment on EKVX and in the experiment on HCT-116 was > 100 µM (inactive) each time. Also, the GI50 was more than 100 µM in the experiment on HCT-15; > 100 µM (inactive) in the experiment on HOP-92; > 100 µM (inactive) with HT-29; > 100 µM (inactive) in the experiment with K562; > 100 µM (inactive) in the experiment with MDA-N; > 100 µM (inactive) in the experiment on NCI-H226. Also, the GI50 with NCI-H460 was > 100 µM (inactive); in the experiment on OVCAR-4 it was > 100 µM (inactive); in the experiment with RXF 393, 97.3 µM (inactive); in the experiment with SF-268, > 100 µM (inactive); in the experiment on SK-MEL-2, > 100 µM (inactive); in the experiment on SR it was > 100 µM (inactive). Further, the GI50 with UACC-257 and in the experiment on UO-31 was > 100 µM (inactive) each time.

For the compound `CCOC(=O)c1ccc(/N=N/N(C)C(=O)C(C)N)cc1` (stereo not given), the GI50 is 49.5 µM (inactive) in the experiment on ACHN; > 100 µM (inactive) with CCRF-CEM; > 100 µM (inactive) in the experiment with COLO 205; > 100 µM (inactive) with DU-145; > 100 µM (inactive) with EKVX; > 100 µM (inactive) in the experiment on HCT-116. Moreover, the GI50 was more than 100 µM in the experiment with HCT-15; 46.7 µM (inactive) in the experiment with HOP-92; > 100 µM (inactive) in the experiment on HT-29; > 100 µM (inactive) with K562; 78.3 µM (inactive) with MDA-N; > 100 µM (inactive) in the experiment on NCI-H226. For the same compound, the GI50 is 16.7 µM (inactive) with NCI-H460; > 100 µM (inactive) in the experiment with OVCAR-4; > 100 µM (inactive) in the experiment on RXF 393; > 100 µM (inactive) in the experiment with SF-268; > 100 µM (inactive) with SK-MEL-2; 36.1 µM (inactive) in the experiment on SR. Also, the GI50 is > 100 µM (inactive) with UACC-257 and 88.7 µM (inactive) in the experiment with UO-31.

As for `CC1=NN=C(N)NC1=CC(Sc1ccc(Cl)cc1)c1c(O)ccc2ccccc12` (stereo not given), the GI50 in the experiment on ACHN is 5.16 µM (inactive); in the experiment with CCRF-CEM, 4.73 µM (inactive); in the experiment on COLO 205, 16.9 µM (inactive); with DU-145, 16.1 µM (inactive); with EKVX it was 18 µM (inactive); in the experiment on HCT-116, 18.9 µM (inactive). Besides, the GI50 is 16.3 µM in the experiment on HCT-15; 20.3 µM (inactive) in the experiment with HOP-92; 20.5 µM (inactive) in the experiment on HT-29; 38.5 µM (inactive) in the experiment on K562; 28.2 µM (inactive) in the experiment on MDA-N; 4.55 µM (inactive) with NCI-H226. For the same compound, the GI50 with NCI-H460 is 17.4 µM (inactive); in the experiment on OVCAR-4, 16.8 µM (inactive); in the experiment with RXF 393, 4.75 µM (inactive); with SF-268, 11.3 µM (inactive); in the experiment on SK-MEL-2 it was 5.02 µM (inactive); in the experiment on SR it was 17.4 µM (inactive). Also, the values for the GI50 in the experiment on UACC-257 and in the experiment with UO-31 were 20.9 µM (inactive) and 6.07 µM (inactive), respectively.

Take `Nc1nonc1-c1noc(-c2nonc2N)[n+]1[O-]`: the GI50 in the experiment with ACHN was 33.8 µM (inactive); in the experiment with CCRF-CEM, 0.366 µM (active); with COLO 205, > 10 µM (inactive); with DU-145, > 100 µM (inactive); in the experiment on EKVX, 30.8 µM (inactive); in the experiment with HCT-116 it was > 100 µM (inactive). In addition, the GI50 in the experiment with HCT-15 is 19.7 µM; in the experiment on HOP-92, 69.8 µM (inactive); with HT-29, 16 µM (inactive); in the experiment on K562, 41 µM (inactive); in the experiment on MDA-N, 69.7 µM (inactive); in the experiment with NCI-H226, 49.5 µM (inactive). The GI50 is 62.7 µM (inactive) in the experiment on NCI-H460; > 100 µM (inactive) in the experiment on OVCAR-4; 24.9 µM (inactive) in the experiment with RXF 393; > 100 µM (inactive) in the experiment with SF-268; > 100 µM (inactive) in the experiment on SK-MEL-2; 93.8 µM (inactive) in the experiment on SR. Further, the GI50 is > 100 µM (inactive) with UACC-257 and 42.9 µM (inactive) in the experiment with UO-31.

For the compound `CC(C)(C)[Si](C)(C)OCC1CCC(n2cnc3c(=O)[nH]cnc32)O1` (stereo not given), the GI50 in the experiment on ACHN was > 100 µM (inactive); with CCRF-CEM, 68.5 µM (inactive); in the experiment with COLO 205, > 100 µM (inactive); in the experiment with DU-145 it was > 100 µM (inactive); in the experiment on EKVX, > 100 µM (inactive); with HCT-116, > 100 µM (inactive). The GI50 is more than 100 µM in the experiment with HCT-15; > 100 µM (inactive) in the experiment with HOP-92; > 100 µM (inactive) in the experiment with HT-29; 85.7 µM (inactive) with K562; > 100 µM (inactive) in the experiment with MDA-N; 77.6 µM (inactive) with NCI-H226. Moreover, the GI50 in the experiment on NCI-H460 is > 100 µM (inactive); in the experiment on OVCAR-4 it was > 100 µM (inactive); in the experiment on RXF 393, > 100 µM (inactive); in the experiment with SF-268, > 100 µM (inactive); in the experiment on SK-MEL-2, > 100 µM (inactive); with SR, 35.3 µM (inactive). The GI50 in the experiment on UACC-257 and in the experiment with UO-31 was > 100 µM (inactive) in each case.

For the origin of these results see ChEMBL document CHEMBL1201862, “PubChem BioAssay data set” (2004).
